In the NIST ThermoML archive (doi:10.1016/j.fluid.2008.09.004):

What was measured:
[1] = molar heat capacity at constant pressure; xn = mol fraction of the nth substance listed; conditions: 101 kPa, Liquid, Small sample (50 mg) DSC
[2] = excess molar enthalpy (molar enthalpy of mixing); xn = mol fraction of the nth substance listed; conditions: 303.15 K, 101 kPa, Liquid, Calvet calorimetry

CCn1cc[n+](C)c1.O=S(=O)([O-])C(F)(F)F [1-ethyl-3-methylimidazolium trifluoromethanesulfonate] + CCO
molar heat capacity at constant pressure [J/K/mol], [1]
Conditions	x1 = 0.0523	x1 = 0.1	x1 = 0.1959	x1 = 0.2927	x1 = 0.3819	x1 = 0.4917	x1 = 0.5983	x1 = 0.6899	x1 = 0.7829	x1 = 0.8784
293.15 K	–	–	–	188.3	209.7	236	261.7	283.9	306.8	330.5
298.15 K	126.8	140.4	165.4	189.5	211	237.4	263.3	285.4	308.5	332.5
303.15 K	128.4	142	166.7	190.7	212.3	238.8	264.9	286.9	310.3	334.5
308.15 K	130.3	143.8	168.1	192.1	213.8	240.4	266.5	288.5	312.2	336.6
313.15 K	132.2	145.5	169.5	193.5	215.2	241.9	268.2	290.1	314.1	338.7
318.15 K	134.2	147.4	171.1	195	216.9	243.6	270	291.9	316.1	340.9

[2]
Conditions	excess molar enthalpy [kcal/mol]
x1 = 0.1271	0.291
x1 = 0.2489	0.411
x1 = 0.3752	0.449
x1 = 0.5006	0.424
x1 = 0.6176	0.363
x1 = 0.7501	0.26
x1 = 0.869	0.143
